Calls of active or inactive are those of the source. The calls are words filed in the database; no cut-off is given here.
Columns and labels:
[1] = Fraction unbound in human plasma; assay type: ADME, cell-free
[2] = Anticoagulant activity in human […] assessed as concentration required to double activated partial […] time; assay type: functional
Prothrombin = Prothrombin (Homo sapiens, UniProt P00734); assay: Inhibition of thrombin
Rattus norvegicus = assay: Anticoagulant activity in iv dosed ferric chloride-induced thrombosis rat model assessed as protection against thrombotic occlusion; assay type: functional, organism-based
[3] = Inhibition of trypsin
[4] = Half life in rat at 10 mg/kg, po; assay type: ADME, organism-based; parameters: dose 10 mg/kg, route oral; details: in vivo
[5] = Cmax in rat at 10 mg/kg, po; assay type: ADME, organism-based; parameters: dose 10 mg/kg, route oral; details: in vivo
[6] = Cmax in dog at 1 mg/kg, po; assay type: ADME, organism-based, Canis lupus familiaris; parameters: dose 1 mg/kg, route oral; details: in vivo
[7] = Half life in dog at 1 mg/kg, po; assay type: ADME, organism-based, Canis lupus familiaris; parameters: dose 1 mg/kg, route oral; details: in vivo

## Cc1cnc(NCCc2ccccn2)c(=O)n1CC(=O)NCc1cc(Cl)ccc1OCC(=O)NC1CC1
[1]
  fraction unbound: 0.01
[2]
  Activity: 0.45 µM
Prothrombin
  Ki: 0.015 nM

## COc1ccc(C#N)c(CNC(=O)Cn2c(C)cnc(NCCC3CCCCN3)c2=O)c1 (racemic)
Rattus norvegicus
  Activity: Active
[3]
  Ki: 136 µM
[2]
  Activity: 0.27 µM
Prothrombin
  Ki: 1.8 nM

## Cc1cnc(NCCc2ccccn2)c(=O)n1CC(=O)NCc1cc(Cl)ccc1OCC(=O)NC1CCCNC1 (centres undefined)
Rattus norvegicus
  Activity: Active
[1]
  fraction unbound: 0.12
[2]
  Activity: 0.24 µM
Prothrombin
  Ki: 0.125 nM

## Cc1ccc(Cl)cc1CNC(=O)Cn1c(C)cnc(NCCC2CCCCN2)c1=O (racemic)
Rattus norvegicus
  Activity: Active
[3]
  Ki: 38 µM
[2]
  Activity: 0.44 µM
Prothrombin
  Ki: 2.3 nM

## Cc1ccc(OCC(F)(F)F)c(CNC(=O)Cn2c(C)cnc(NCCc3ccccn3)c2=O)c1
[3]
  Ki: 91 µM
[2]
  Activity: 0.89 µM
Prothrombin
  Ki: 1.5 nM

## O=C(Cn1c(Cl)cnc(NCCc2cccc[n+]2[O-])c1=O)NCc1cc(Cl)ccc1Cl
[3]
  Ki: 138 µM
[2]
  Activity: 0.65 µM
Prothrombin
  Ki: 0.76 nM

## COc1ccc(Cl)cc1CNC(=O)Cn1c(C)cnc(NCCc2ccccn2)c1=O
[4]
  half-life: 3.73 h
[5]
  Cmax: 570 nM
[3]
  Ki: 161 µM
[6]
  Cmax: 1480 nM
[2]
  Activity: 1.05 µM
[7]
  half-life: 1 h
Prothrombin
  Ki: 2 nM

## Cc1ccc(Cl)cc1CNC(=O)Cn1c(C)cnc(NCCc2ccccn2)c1=O
[4]
  half-life: 3.67 h
[5]
  Cmax: 1290 nM
[3]
  Ki: > 50 µM
[6]
  Cmax: 2520 nM
[2]
  Activity: 0.87 µM
[7]
  half-life: 1.18 h
Prothrombin
  Ki: 1.1 nM

## COc1ccc(C#N)c(CNC(=O)Cn2c(Cl)cnc(NCCc3cccc[n+]3[O-])c2=O)c1
[3]
  Ki: 278 µM
[2]
  Activity: 0.41 µM
Prothrombin
  Ki: 1.1 nM

## O=C(Cn1c(Cl)cnc(NCCc2cccc[n+]2[O-])c1=O)NCc1cc(Cl)ccc1OCC(F)(F)F
[3]
  Ki: 17 µM
[2]
  Activity: 0.6 µM
Prothrombin
  Ki: 0.31 nM

## Cc1cnc(NCCc2ccccn2)c(=O)n1CC(=O)NCc1cc(Cl)ccc1OCC(F)(F)F
[4]
  half-life: 1.95 h
[5]
  Cmax: 1060 nM
[3]
  Ki: 32 µM
[6]
  Cmax: 3240 nM
[2]
  Activity: 0.79 µM
[7]
  half-life: 1.3 h
Prothrombin
  Ki: 0.5 nM

## COc1ccc(C)cc1CNC(=O)Cn1c(C)cnc(NCCc2ccccn2)c1=O
[3]
  Ki: 902 µM
[2]
  Activity: 2.9 µM
Prothrombin
  Ki: 8 nM

## COc1ccc(Cl)cc1CNC(=O)Cn1c(C)cnc(NCCC2CCCCN2)c1=O (racemic)
Rattus norvegicus
  Activity: Active
[3]
  Ki: 58.9 µM
[2]
  Activity: 0.65 µM
Prothrombin
  Ki: 4.8 nM

## COc1ccc(C#N)c(CNC(=O)Cn2c(Cl)cnc(NCCc3ccccn3)c2=O)c1
[3]
  Ki: > 100 µM
[2]
  Activity: 0.83 µM
Prothrombin
  Ki: 1.5 nM

## Cc1cnc(NCCc2ccccn2)c(=O)n1CC(=O)NCc1cc(Cl)ccc1Cl
[3]
  Ki: 52 µM
[2]
  Activity: 0.98 µM
Prothrombin
  Ki: 0.75 nM

## NC(C(=O)N1CCC[C@H]1C(=O)NCc1cc(Cl)ccc1OCC(=O)NC1CC1)C1CCCCC1 (single isomer, unassigned)
[1]
  fraction unbound: 0.12
[2]
  Activity: 0.42 µM

## COc1ccc(C#N)c(CNC(=O)Cn2c(C)cnc(NCCc3ccccn3)c2=O)c1
[4]
  half-life: 2.08 h
[5]
  Cmax: 2280 nM
[3]
  Ki: > 1000 µM
[6]
  Cmax: 2260 nM
[2]
  Activity: 0.72 µM
[7]
  half-life: 1.47 h
Prothrombin
  Ki: 1.6 nM

## Cc1ccc(Cl)cc1CNC(=O)Cn1c(Cl)cnc(NCCc2cccc[n+]2[O-])c1=O
[3]
  Ki: 94 µM
[2]
  Activity: 0.69 µM
Prothrombin
  Ki: 1.1 nM

## Cc1ccc(C#N)c(CNC(=O)Cn2c(C)cnc(NCCc3ccccn3)c2=O)c1
[3]
  Ki: 102 µM
[6]
  Cmax: 2300 nM
[2]
  Activity: 0.56 µM
[7]
  half-life: 0.85 h
Prothrombin
  Ki: 1.3 nM

## Cc1cnc(NCCc2ccccn2)c(=O)n1CC(=O)NCc1cccc(Cl)c1
[4]
  half-life: 1 h
[5]
  Cmax: 2980 nM
[3]
  Ki: 37 µM
[6]
  Cmax: 2820 nM
[1]
  fraction unbound: 0.06
[2]
  Activity: 1.01 µM
[7]
  half-life: 0.867 h
Prothrombin
  Ki: 3 nM

## COc1ccc(Cl)cc1CNC(=O)Cn1c(Cl)cnc(NCCc2cccc[n+]2[O-])c1=O
[3]
  Ki: 64 µM
[2]
  Activity: 0.67 µM
Prothrombin
  Ki: 1.8 nM
